These results are taken from US20190167716A9, “Use of Electrolyzed Water for Treatment and Prevention of Common Livestock Diseases and Conditions, Including PRRS” (priority 2013, published 2019).

SMILES strings stand for the structures.

In this experiment the test system is streptococcus. As to the kind of experiment: Fog test in bi-room swine confinement infected with streptococcus. To be noted: both rooms after a course of R-pen; recurred 10 days later in the control room. The format is in vivo. The method, then:
A test was conducted in a 70′×280′ bi-room configuration swine confinement in a wean to finish operation infected with streptococcus symptoms and showing severe symptoms. The swine confinement included a common effluent pit with center dividing wall and pit level equalization cutouts at the base. Each room included a standard layout with […] and a 24 inch gated alleyway. Capacity was 2480 head, each room was 70 feet by 140 feet; one room was used as the test room to receive the electrolyzed water treatment, the other as a control. Two high pressure lines, centered through the barn at 12 inches below the ceiling, were used to deliver the electrolyzed water. The water was delivered via 60 nozzles in the treatment room, rated at 0.020 gallons per minute, two for each pen, at 1000 psi. The output of fog or mist to the room was 1.2 gallon per minute, delivered by 1000 psi 3 gpm 2 horsepower pump, actuated by a preset timer. The fog was administered for about 1 minute, each of four times a day at generally equally spaced intervals. Total was about 4.8 gallons per 24 hour period.
Both rooms were filled Oct. 17, 2013. Treatment began 1 week later and continued for 15 weeks. […] The death report, per room per week during the 15 week trial was as follows: […]

On to `CC1(C)S[C@@H]2[C@H](NC(=O)Cc3ccccc3)C(=O)N2[C@H]1C(=O)[O-].[K+]` [R-pen], for which the strep symptoms result is on record as “decrease in strep symptoms”.
